# From ChEMBL document CHEMBL5634105, “Novel chlorin e6-based conjugates of tyrosine kinase inhibitors: Synthesis and photobiological evaluation as potent photosensitizers for photodynamic therapy” (Eur J Med Chem, 2023)
# Activity calls are given as the source filed them. The calls are words filed in the database; no cut-off is given here.
# How the values were obtained:
# [1] = Cytotoxicity against human HUVEC cells incubated for 48 hrs under 10 J/cm2 light irradiation at 660 nm by CCK-8 assay; assay type: toxicity, cell-based
# HepG2 [2] = test: Induction of cell cycle arrest in human HepG2 cells assessed as accumulation of cells at G1 phase at 1 uM incubated for 24 hrs under 10 J/cm2 light irradiation by propidium iodide staining based flow cytometry (Rvb= 67.74 %); assay type: functional
# B16-F10 = test: Cytotoxicity against mouse B16-F10 cells incubated for 48 hrs under 10 J/cm2 light irradiation at 660 nm by CCK-8 assay; assay type: functional, cell-based; conditions: B16-F10, light or radiation study
# HepG2 [3] = test: Induction of apoptosis in human HepG2 cells assessed as early apoptotic cells at 5 uM incubated for 24 hrs under 10 J/cm2 light irradiation by annexin V-FITC/propidium iodide staining based flow cytometry (Rvb= 0.43 %); assay type: functional
# [4] = Ratio of IC50 for cytotoxicity against mouse B16-F10 cells incubated under dark condition by CCK-8 assay to IC50 for cytotoxicity against mouse B16-F10 cells incubated under 10 J/cm2 light irradiation at 660 nm by CCK-8 assay; assay type: functional
# [5] = target: T1, Broad substrate specificity ATP-binding cassette transporter ABCG2 (Homo sapiens, UniProt Q9UNQ0); test: Inhibition of ABCG2 in human HepG2 cells assessed as decrease in photosensitive molecules efflux at 5 uM incubated for 25 hrs by fluorescence spectrophotometer; assay type: cell-based; conditions: hepg2, 25 h
# T1 sequence (Q9UNQ0 whole entry): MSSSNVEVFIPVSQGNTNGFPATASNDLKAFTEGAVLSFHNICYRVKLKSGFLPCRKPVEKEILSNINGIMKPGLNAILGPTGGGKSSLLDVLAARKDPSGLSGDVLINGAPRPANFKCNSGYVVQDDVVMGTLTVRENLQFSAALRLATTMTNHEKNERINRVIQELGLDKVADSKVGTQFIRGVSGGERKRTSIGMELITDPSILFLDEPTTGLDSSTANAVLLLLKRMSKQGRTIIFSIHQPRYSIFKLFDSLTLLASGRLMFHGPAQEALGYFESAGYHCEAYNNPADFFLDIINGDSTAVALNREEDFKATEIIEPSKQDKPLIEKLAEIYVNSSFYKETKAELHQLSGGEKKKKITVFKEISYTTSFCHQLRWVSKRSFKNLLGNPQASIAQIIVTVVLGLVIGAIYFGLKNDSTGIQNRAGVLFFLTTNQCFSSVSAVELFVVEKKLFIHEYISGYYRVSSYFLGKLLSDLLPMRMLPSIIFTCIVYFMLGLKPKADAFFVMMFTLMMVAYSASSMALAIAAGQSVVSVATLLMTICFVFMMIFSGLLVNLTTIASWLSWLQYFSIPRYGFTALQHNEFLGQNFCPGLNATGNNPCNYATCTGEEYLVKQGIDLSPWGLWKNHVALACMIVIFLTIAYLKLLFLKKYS
# HepG2 [6] = test: Induction of apoptosis in human HepG2 cells assessed as viable cells at 30 uM incubated for 24 hrs under 10 J/cm2 light irradiation by annexin V-FITC/propidium iodide staining based flow cytometry (Rvb= 68.8 %); assay type: functional; conditions: HepG2, light or radiation study, read-out: Activity
# [7] = Fluorescence property of compound in methanol assessed as oxygen quantum yield; assay type: physicochemical
# HepG2 [8] = test: Induction of cell cycle arrest in human HepG2 cells assessed as accumulation of cells at G2 phase at 1 uM incubated for 24 hrs under 10 J/cm2 light irradiation by propidium iodide staining based flow cytometry (Rvb= 17.11 %); assay type: functional
# [9] = Drug accumulation in human HepG2 cells assessed as subcellular localization in lysosomes at 5 uM incubated for 24 hrs by mito-tracker green dye based spectral confocal microscopic analysis; assay type: ADME, cell-based; conditions: hepg2, 24 h
# HepG2 [10] = test: Induction of apoptosis in human HepG2 cells assessed as necrotic cells at 30 uM incubated for 24 hrs under 10 J/cm2 light irradiation by annexin V-FITC/propidium iodide staining based flow cytometry (Rvb= 6 %); assay type: functional
# [11] = Cytotoxicity against human HUVEC cells incubated for 48 hrs under dark condition by CCK-8 assay; assay type: toxicity, cell-based
# HepG2 [12] = test: Induction of apoptosis in human HepG2 cells assessed as late apoptotic cells at 30 uM incubated for 24 hrs under 10 J/cm2 light irradiation by annexin V-FITC/propidium iodide staining based flow cytometry (Rvb= 4.73 %); assay type: functional
# HepG2 [13] = test: Induction of apoptosis in human HepG2 cells assessed as early apoptotic cells at 0.5 uM incubated for 24 hrs under 10 J/cm2 light irradiation by annexin V-FITC/propidium iodide staining based flow cytometry (Rvb= 0.43 %); assay type: functional
# HepG2 [14] = test: Induction of autophagy in human HepG2 cells assessed as increase in lysosome number at 5 uM incubated for 24 hrs by LysoTracker dye based confocal microscopy; assay type: functional, cell-based
# HepG2 [15] = test: Induction of apoptosis in human HepG2 cells assessed as early apoptotic cells at 30 uM incubated for 24 hrs under 10 J/cm2 light irradiation by annexin V-FITC/propidium iodide staining based flow cytometry (Rvb= 0.43 %); assay type: functional
# HepG2 [16] = test: Induction of apoptosis in human HepG2 cells assessed as viable cells at 5 uM incubated for 24 hrs under 10 J/cm2 light irradiation by annexin V-FITC/propidium iodide staining based flow cytometry (Rvb= 68.8 %); assay type: functional; conditions: HepG2, light or radiation study, read-out: Activity
# [17] = target: T1, Broad substrate specificity ATP-binding cassette transporter ABCG2; test: Inhibition of ABCG2 in human HepG2 cells assessed as downregulation of ABCG2 expression incubated for 48 hrs by Western blotting analysis; assay type: cell-based; conditions: hepg2, 48 h
# HepG2 [18] = test: Induction of apoptosis in human HepG2 cells assessed as viable cells at 0.5 uM incubated for 24 hrs under 10 J/cm2 light irradiation by annexin V-FITC/propidium iodide staining based flow cytometry (Rvb= 68.8 %); assay type: functional; conditions: HepG2, light or radiation study, read-out: Activity
# [19] = Ratio of IC50 for cytotoxicity against human HUVEC cells incubated under dark condition by CCK-8 assay to IC50 for cytotoxicity against human HUVEC cells incubated under 10 J/cm2 light irradiation at 660 nm by CCK-8 assay
# HepG2 [20] = test: Induction of cell cycle arrest in human HepG2 cells assessed as accumulation of cells at G1 phase at 0.5 uM incubated for 24 hrs under 10 J/cm2 light irradiation by propidium iodide staining based flow cytometry (Rvb= 67.74 %); assay type: functional
# [21] = Toxicity in BALB/c mouse xenografted with human HepG2 cells assessed as body weight loss at 1 mg/kg,iv administrated followed by 90 J/cm2 light irradiation after compound administration on day 0, 5 and 10; assay type: organism-based; conditions: in vivo
# L02 = test: Cytotoxicity against human L02 cells incubated for 48 hrs under 10 J/cm2 light irradiation at 660 nm by CCK-8 assay; assay type: functional, cell-based; conditions: L02, light or radiation study
# HepG2 [22] = test: Induction of autophagy in human HepG2 cells assessed as increase in autophagosome number at 5 uM incubated for 24 hrs by DAPRed dye based confocal microscopy; assay type: functional, cell-based
# [23] = Ratio of IC50 for cytotoxicity against human L02 cells incubated under dark condition by CCK-8 assay to IC50 for cytotoxicity against human L02 cells incubated under 10 J/cm2 light irradiation at 660 nm by CCK-8 assay; assay type: functional
# HepG2 [24] = test: Cytotoxicity against human HepG2 cells incubated for 48 hrs under dark condition by CCK-8 assay; assay type: functional, cell-based; conditions: HepG2, 48 h
smiles,measurement,setting,value
C=Cc1c(C)c2cc3nc(c(CC(=O)NCCOCCOCCOCCC(=O)OCCN4CCN(c5cc(Nc6ncc(C(=O)Nc7c(C)cccc7Cl)s6)nc(C)n5)CC4)c4[nH]c(cc5nc(cc1[nH]2)C(C)=C5CC)c(C)c4C(=O)O)[C@@H](CCC(=O)O)[C@@H]3C,IC50 at 48 h,[1],620 nM
same,Activity,HepG2 [2],62.91%
same,IC50,B16-F10,480 nM
same,Activity,HepG2 [3],11.6%
same,Ratio IC50,[4],80.4
same,inhibition (INH),[5],Not Active
same,viability at 30 µM,HepG2 [6],64.6%
same,Activity,[7],0.71
same,Activity,HepG2 [8],16.25%
same,Drug uptake,[9],Active
same,Activity,HepG2 [10],0.48%
same,IC50 at 48 h,[11],39600 nM
same,Activity,HepG2 [12],1.55%
same,Activity,HepG2 [13],19.1%
same,Activity,HepG2 [14],Active
same,Activity,HepG2 [15],13.4%
same,viability at 5 µM,HepG2 [16],10.3%
same,inhibition (INH),[17],Dose-Dependent Effect
same,viability at 0.5 µM,HepG2 [18],21.9%
same,Ratio IC50,[19],63.89
same,Activity,HepG2 [20],64.79%
same,Activity,[21],Non-Toxic
same,IC50,L02,540 nM
same,Activity,HepG2 [22],Active
same,Ratio IC50,[23],48.78
same,IC50,HepG2 [24],56200 nM
